Results on 37 compounds are retold here after patent US6620961B1, “Biarylalkylenecarbamic acid derivatives and bacteriocides for agricultural and horticultural use” (Kumiai Chemical Industry Co., Ltd., priority 1997, dated 2003).

The structures appear in SMILES notation.

In the first experiment the test system is Venturia inaequalis. The experiment in a line: Test for Preventive Effect on Apple Scab. The following applies: apple seedlings (Kogyoku), 500 ppm active ingredient, 20 ml per pot, 14 days after inoculation. Format: in vivo. On the set-up: key: A: No diseased area; B: Diseased area of less than 25%; C: Diseased area of at least 25% but less than 50%; Diseased area of at least 50%. Here is the method:
[table] Test for Preventive Effect on Apple Scab 5 apple seeds (variety: Kogyoku) were sown in each 9 cm×9 cm polyvinyl chloride pot and grown in a greenhouse for 20 days. […] Then, the seedlings were inoculated with Venturia inaequalis spores in suspension by spraying and immediately placed in a moist chamber at 22° C. for 48 hours. Thereafter, the seedlings were placed in a greenhouse for development of the disease. 14 days after the inoculation, the diseased areas of the upper two of the inoculated leaves were observed and evaluated on the basis of the standards shown in Table 59.
On to `COC(=O)NC(C)c1cccc(-c2ccc(C)cc2)c1` (racemic) [3-7], for which the “Evaluation (diseased area of the upper two inoculated leaves)” value is “A”. The same measure, in the same setting: as for `COC(=O)NC(C)c1cccc(-c2ccc(C(F)(F)F)cc2)c1` (racemic) [3-17], the entry is “A”. Consider `COC(=O)NC(C)c1cccc(-c2ccc(Cl)cc2Cl)c1` (racemic) [3-18], for which the “Evaluation (diseased area of the upper two inoculated leaves)” value was “A”. Turning to `COC(=O)NC(C)c1cc(-c2ccccc2)ccc1F` (racemic) [3-26], the “Evaluation (diseased area of the upper two inoculated leaves)” value is recorded as “A”. Turning to `COC(=O)NC(C)c1cc(-c2ccc(C)cc2)ccc1F` (racemic) [3-32], the “Evaluation (diseased area of the upper two inoculated leaves)” value is reported as “B (Diseased area of less than 25%)”. Still for that read-out and setting: the result for `CCC(NC(=O)OC)c1cccc(-c2ccc(C)cc2)c1` (racemic) [3-107] reads “B (Diseased area of less than 25%)”; that for `COC(=O)NCc1cc(-c2ccc(C(F)(F)F)cc2)ccc1OC` [2-344], “A”; that for `COC(=O)NCc1cc(-c2ccc(C(C)=O)cc2)ccc1Cl` [2-451], “B (Diseased area of less than 25%)”.

The experiment is the same for the next values; noted with them: apple seedlings, wettable powder at 500 ppm active ingredient, preventive, 14 days after inoculation.
For `COC(=O)NCc1cccc(-c2ccccc2Cl)c1` [1-2], the “Evaluation (diseased areas of the upper two of the inoculated leaves)” value is listed as “A”.

With `COC(=O)NCc1cccc(-c2cccc(F)c2)c1` [1-6], the “Evaluation (diseased areas of the upper two of the inoculated leaves)” value was “A”. On to `COC(=O)NCc1cccc(-c2ccccc2C)c1` [1-10], for which the “Evaluation (diseased areas of the upper two of the inoculated leaves)” value is given as “A”. In the case of `CCc1cccc(-c2cccc(CNC(=O)OC)c2)c1` [1-13], the “Evaluation (diseased areas of the upper two of the inoculated leaves)” value is “A”. Still for that read-out and setting: as for `CCc1ccc(-c2cccc(CNC(=O)OC)c2)cc1` [1-14], the entry is “A”; as for `COC(=O)NCc1cccc(-c2cccc(C(C)C)c2)c1` [1-17], “A”; as for `COC(=O)NCc1cccc(-c2ccc(C(C)C)cc2)c1` [1-18], “A”. Consider `COC(=O)NCc1cccc(-c2ccccc2OC)c1` [1-40], for which the “Evaluation (diseased areas of the upper two of the inoculated leaves)” value was “A”.

Turning to `COC(=O)NCc1cccc(-c2ccc(OC(F)(F)F)cc2)c1` [1-72], the “Evaluation (diseased areas of the upper two of the inoculated leaves)” value is given as “A”. Consider `COC(=O)NCc1cccc(-c2ccc(Cl)cc2Cl)c1` [1-117], for which the “Evaluation (diseased areas of the upper two of the inoculated leaves)” value is “A”. Still for that read-out and setting: the result for `COC(=O)NCc1cccc(-c2ccc(F)c(F)c2)c1` [1-120] reads “A”. Same read-out and setting: the result for `COC(=O)NCc1cccc(-c2ccc(F)c(Cl)c2)c1` [1-122] reads “A”; that for `COC(=O)NCc1cccc(-c2ccc(C)c([N+](=O)[O-])c2)c1` [1-137], “A”; that for `CCOC(=O)NCc1cccc(-c2ccccc2)c1` [1-146], “B (Diseased area of less than 25%)”. In the case of `COC(=O)N(C)Cc1cccc(-c2ccccc2)c1` [1-163], the “Evaluation (diseased areas of the upper two of the inoculated leaves)” value was “A”. Turning to `CCN(Cc1cccc(-c2ccccc2)c1)C(=O)OC` [1-165], the “Evaluation (diseased areas of the upper two of the inoculated leaves)” value is recorded as “A”. Same read-out and setting: the result for `CCCN(Cc1cccc(-c2ccccc2)c1)C(=O)OC` [1-166] reads “B (Diseased area of less than 25%)”; that for `C=CCN(Cc1cccc(-c2ccccc2)c1)C(=O)OC` [1-168], “A”. On the same count and under the same terms, the result for `C#CCN(Cc1cccc(-c2ccccc2)c1)C(=O)OC` [1-178, Methyl N-(3-phenylbenzyl)-N-(2-propynyl)carbamate] reads “A”; that for `COCN(Cc1cccc(-c2ccccc2)c1)C(=O)OC` [1-192, Methyl N-methoxymethyl-N-(3-phenylbenzyl)carbamate], “A”; that for `COCN(Cc1cccc(-c2ccccc2C)c1)C(=O)OC` [1-193], “A”. Same read-out and setting: the result for `COCN(Cc1cccc(-c2cccc(C)c2)c1)C(=O)OC` [1-194] reads “A”. For the compound `COCN(Cc1cccc(-c2ccc(C)cc2)c1)C(=O)OC` [1-195], the “Evaluation (diseased areas of the upper two of the inoculated leaves)” value is on record as “A”. Consider `COCN(Cc1cccc(-c2ccc(OC)cc2)c1)C(=O)OC` [1-198], for which the “Evaluation (diseased areas of the upper two of the inoculated leaves)” value is reported as “A”. The same measure, in the same setting: as for `COCN(Cc1cccc(-c2ccc(F)cc2)c1)C(=O)OC` [1-201], the entry is “A”; as for `CN(C)C(=O)NCc1cccc(-c2ccccc2)c1` [1-262], “B (Diseased area of less than 25%)”.

The next experiment concerns Erysiphe graminis. The experiment in a line: Test for Preventive Effect on Wheat Powdery Mildew. The format is in vivo. Also noted: key: A: No diseased area; B: Diseased area of less than 25%; C: Diseased area of at least 25% but less than 50%; Diseased area of at least 50%. Particulars: wheat seedlings (Norin-61-go), 500 ppm active ingredient, 10 ml per pot, 10 days after inoculation. Here is the method: [table] Test for Preventive Effect on Wheat Powdery Mildew 9 wheat seeds (variety: […] Then, the seedlings were inoculated with […] graminis spores in suspension and placed in a greenhouse at 25 to 30° C. 10 days after the inoculation, the total diseases area of the first leaves in each pot was observed and evaluated on the basis of the standards shown in Table 59. The results are shown in Tables 67 to 71.
As to `COC(=O)NC(C)c1cccc(-c2ccc(C)cc2)c1` (racemic) [3-7], the “Evaluation (total diseased area of the first leaves in each pot)” value is given as “A”.

In the case of `COC(=O)NC(C)c1cccc(-c2ccc(C(F)(F)F)cc2)c1` (racemic) [3-17], the “Evaluation (total diseased area of the first leaves in each pot)” value was “A”.

`COC(=O)NC(C)c1cccc(-c2ccc(Cl)cc2Cl)c1` (racemic) [3-18]: the “Evaluation (total diseased area of the first leaves in each pot)” value is listed as “A”. On to `COC(=O)NC(C)c1cc(-c2ccccc2)ccc1F` (racemic) [3-26], for which the “Evaluation (total diseased area of the first leaves in each pot)” value is “B (Diseased area of less than 25%)”. On to `COC(=O)NC(C)c1cc(-c2ccc(C)cc2)ccc1F` (racemic) [3-32], for which the “Evaluation (total diseased area of the first leaves in each pot)” value is “B (Diseased area of less than 25%)”. For `CCC(NC(=O)OC)c1cccc(-c2ccccc2)c1` (racemic) [3-101], the “Evaluation (total diseased area of the first leaves in each pot)” value is “B (Diseased area of less than 25%)”. Take `CCC(NC(=O)OC)c1cccc(-c2ccc(Cl)cc2)c1` (racemic) [3-105]: the “Evaluation (total diseased area of the first leaves in each pot)” value is listed as “B (Diseased area of less than 25%)”. Still for that read-out and setting: the result for `CCC(NC(=O)OC)c1cccc(-c2ccc(C)cc2)c1` (racemic) [3-107] reads “B (Diseased area of less than 25%)”. Take `COC(=O)NCc1cccc(-c2ccccc2Cl)c1` [1-2]: the “Evaluation (total diseased area of the first leaves in each pot)” value is “A”.

Turning to `COC(=O)NCc1cccc(-c2cccc(F)c2)c1` [1-6], the “Evaluation (total diseased area of the first leaves in each pot)” value was “A”.

Consider `COC(=O)NCc1cccc(-c2ccccc2C)c1` [1-10], for which the “Evaluation (total diseased area of the first leaves in each pot)” value is “A”.

Consider `CCc1cccc(-c2cccc(CNC(=O)OC)c2)c1` [1-13], for which the “Evaluation (total diseased area of the first leaves in each pot)” value is reported as “A”. Same read-out and setting: the result for `CCc1ccc(-c2cccc(CNC(=O)OC)c2)cc1` [1-14] reads “B (Diseased area of less than 25%)”. For the compound `COC(=O)NCc1cccc(-c2cccc(C(C)C)c2)c1` [1-17], the “Evaluation (total diseased area of the first leaves in each pot)” value was “B (Diseased area of less than 25%)”. Regarding `COC(=O)NCc1cccc(-c2ccc(C(C)C)cc2)c1` [1-18], the “Evaluation (total diseased area of the first leaves in each pot)” value is “A”.

Take `COC(=O)NCc1cccc(-c2ccccc2OC)c1` [1-40]: the “Evaluation (total diseased area of the first leaves in each pot)” value is reported as “A”. Same read-out and setting: the result for `COC(=O)NCc1cccc(-c2ccc(OC(F)(F)F)cc2)c1` [1-72] reads “A”; that for `COC(=O)NCc1cccc(-c2ccc(F)c(F)c2)c1` [1-120], “A”; that for `COC(=O)NCc1cccc(-c2ccc(F)c(Cl)c2)c1` [1-122], “A”. For the compound `CCOC(=O)NCc1cccc(-c2ccccc2)c1` [1-146], the “Evaluation (total diseased area of the first leaves in each pot)” value is “B (Diseased area of less than 25%)”. Take `CCCCOC(=O)NCc1cccc(-c2ccccc2)c1` [1-148]: the “Evaluation (total diseased area of the first leaves in each pot)” value is “B (Diseased area of less than 25%)”. Turning to `COC(=O)N(C)Cc1cccc(-c2ccccc2)c1` [1-163], the “Evaluation (total diseased area of the first leaves in each pot)” value is “A”. With `CCN(Cc1cccc(-c2ccccc2)c1)C(=O)OC` [1-165], the “Evaluation (total diseased area of the first leaves in each pot)” value is listed as “B (Diseased area of less than 25%)”. With `CCCN(Cc1cccc(-c2ccccc2)c1)C(=O)OC` [1-166], the “Evaluation (total diseased area of the first leaves in each pot)” value is given as “B (Diseased area of less than 25%)”. As to `C=CCN(Cc1cccc(-c2ccccc2)c1)C(=O)OC` [1-168], the “Evaluation (total diseased area of the first leaves in each pot)” value is listed as “A”. Regarding `C#CCN(Cc1cccc(-c2ccccc2)c1)C(=O)OC` [1-178, Methyl N-(3-phenylbenzyl)-N-(2-propynyl)carbamate], the “Evaluation (total diseased area of the first leaves in each pot)” value is recorded as “A”.

For `COCN(Cc1cccc(-c2ccccc2)c1)C(=O)OC` [1-192, Methyl N-methoxymethyl-N-(3-phenylbenzyl)carbamate], the “Evaluation (total diseased area of the first leaves in each pot)” value is reported as “A”.

As for `COCN(Cc1cccc(-c2ccccc2C)c1)C(=O)OC` [1-193], the “Evaluation (total diseased area of the first leaves in each pot)” value was “B (Diseased area of less than 25%)”. Still for that read-out and setting: as for `COCN(Cc1cccc(-c2cccc(C)c2)c1)C(=O)OC` [1-194], the entry is “A”; as for `COCN(Cc1cccc(-c2ccc(C)cc2)c1)C(=O)OC` [1-195], “A”; as for `COCN(Cc1cccc(-c2ccc(OC)cc2)c1)C(=O)OC` [1-198], “A”. As for `COCN(Cc1cccc(-c2ccc(F)cc2)c1)C(=O)OC` [1-201], the “Evaluation (total diseased area of the first leaves in each pot)” value was “A”.
